Reference: patent US20260315464A1, “COMPOSITIONS, METHODS, AND SYSTEMS FOR MODULATING SPLICING OF MSH3” (REVIR THERAPEUTICS, INC., priority 2023, published 2026)

Test system: MSH3
Test: QPCR assay for levels of MSH3 upon compound treatment in HEK293T or AD293 cells (fold-change of MSH3 transcript, EC50 of MSH3 downregulation; total MSH3 exons 13/14, exons 20/21; Table 8)
Assay type: cell-based
Details: for mrna remaining at 1 µM / mrna remaining at 10 µM: Homo sapiens, fold-change of the MSH3 transcript, normalized to GAPDH; for mrna remaining at 1 µM: 1 μM compound; for mrna remaining at 10 µM: 10 μM compound; for EC50: EC50 of MSH3 downregulation, XtalPi
In short: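 MSH3 mRNA was quantified by TaqMan qPCR covering exons 13/14, exons 20/21, exon 13/PE14A and exon 20/PE21A, with GAPDH as reference. Cells used were HEK293T or AD293, treated with compound at 1 μM and […].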

| SMILES | mrna remaining at 1 µM [%] | mrna remaining at 10 µM [%] | EC50 [nM] |
| --- | --- | --- | --- |
| Cc1nn(C)nc1-c1cc2c(cn1)CN(c1ccc(O[C@H]3C[C@]4(C)CC[C@](C)(C3)N4)nn1)C2=O [Compound 96, 6-(2,5-dimethyl-2H-1,2,3-triazol-4-yl)-2-(6-(((1R,3s,5S)-1,5-dimethyl-8-azabicyclo[3.2.1]octan-3-yl)oxy)pyridazin-3-yl)-2,3-dihydro-1H-pyrrolo[3,4-c]pyridin-1-one] | 79 | 119 | – |
| CCN1CC2CN(c3ccc(N4Cc5c(F)cc(-c6nn(C)nc6C)cc5C4=O)nn3)CC2C1 (stereo not drawn) [Compound 663, 6-(2,5-dimethyl-2H-1,2,3-triazol-4-yl)-2-(6-(5-ethylhexahydropyrrolo[3,4-c]pyrrol-2(1H)-yl)pyridazin-3-yl)-4-fluoroisoindolin-1-one] | 232 | 62 | – |
| Cc1nn(C)nc1-c1cc(F)c2c(c1)C(=O)N(c1ccc(N3CC[C@@H](NC(C)(C)C)C3)nn1)C2 [Compound 648, (R)-2-(6-(3-(tert-butylamino)pyrrolidin-1-yl)pyridazin-3-yl)-6-(2,5-dimethyl-2H-1,2,3-triazol-4-yl)-4-fluoroisoindolin-1-one] | 113 | 87 | – |
| Cc1nn(C)cc1-c1cc(F)c2c(c1)C(=O)N(c1ccc(OC3CC(C)(C)NC4(CC4)C3)nn1)C2 (stereo not drawn) [Compound 284, 6-(1,3-dimethyl-1H-pyrazol-4-yl)-2-(6-((5,5-dimethyl-4-azaspiro[2.5]octan-7-yl)oxy)pyridazin-3-yl)-4-fluoroisoindolin-1-one] | 91 | 73 | – |
| Cn1ncc(-c2cc(F)c3c(c2)C(=O)N(c2ccc(O[C@H]4C[C@]5(C)CC[C@](C)(C4)N5)nn2)C3)n1 [Compound 631, 2-(6-(((1R,3s,5S)-1,5-dimethyl-8-azabicyclo[3.2.1]octan-3-yl)oxy)pyridazin-3-yl)-4-fluoro-6-(2-methyl-2H-1,2,3-triazol-4-yl)isoindolin-1-one] | 86 | 69 | – |
| Cc1nc(C)c(-c2cnc3c(c2)C(=O)N(c2cnc(N(C)C4CC(C)(C)NC(C)(C)C4)nn2)C3)s1 [Compound 195, 3-(2,4-dimethylthiazol-5-yl)-6-(3-(methyl(2,2,6,6-tetramethylpiperidin-4-yl)amino)-1,2,4-triazin-6-yl)-6,7-dihydro-5H-pyrrolo[3,4-b]pyridin-5-one] | 59 | 42 | – |
| Cc1nn(C)nc1-c1ccc2c(c1)C(=O)N(c1ccc(O[C@H]3C[C@]4(C)CC[C@](C)(C3)N4)nn1)C2 [Compound 439, 6-(2,5-dimethyl-2H-1,2,3-triazol-4-yl)-2-(6-(((1R,3s,5S)-1,5-dimethyl-8-azabicyclo[3.2.1]octan-3-yl)oxy)pyridazin-3-yl)isoindolin-1-one] | 87 | 72 | – |
| Cn1cc(-c2cnc3c(c2)C(=O)N(c2ccc(OC4CC(C)(C)NC(C)(C)C4)nn2)C3)c(F)n1 [Compound 190, 3-(3-fluoro-1-methyl-1H-pyrazol-4-yl)-6-(6-((2,2,6,6-tetramethylpiperidin-4-yl)oxy)pyridazin-3-yl)-6,7-dihydro-5H-pyrrolo[3,4-b]pyridin-5-one] | 106 | 45 | – |
| CN(c1ccc(N2Cc3ncc(-c4cnn(C)n4)cc3C2=O)nn1)[C@H]1C[C@]2(C)CC[C@](C)(C1)N2 [Compound 188, 6-(6-(((1R,3s,5S)-1,5-dimethyl-8-azabicyclo[3.2.1]octan-3-yl)(methyl)amino)pyridazin-3-yl)-3-(2-methyl-2H-1,2,3-triazol-4-yl)-6,7-dihydro-5H-pyrrolo[3,4-b]pyridin-5-one] | 18 | 5 | 960 |
| Cc1nn(C)cc1-c1cc(Cl)c2c(c1)C(=O)N(c1ccc(O[C@H]3C[C@]4(C)CC[C@](C)(C3)N4)nn1)C2 [Compound 447, 4-chloro-6-(1,3-dimethyl-1H-pyrazol-4-yl)-2-(6-(((1R,3s,5S)-1,5-dimethyl-8-azabicyclo[3.2.1]octan-3-yl)oxy)pyridazin-3-yl)isoindolin-1-one] | 94 | – | – |
| COc1cc(-c2nn(C)nc2C)cc2c1CN(c1ccc(N(C)C3CC(C)(C)NC(C)(C)C3)nn1)C2=O [Compound 683, 6-(2,5-dimethyl-2H-1,2,3-triazol-4-yl)-4-methoxy-2-(6-(methyl(2,2,6,6-tetramethylpiperidin-4-yl)amino)pyridazin-3-yl)isoindolin-1-one] | 138 | 26 | – |
| Cn1cc(-c2ccc3c(c2)C(=O)N(c2ccc(N4CCN[C@@H](C(C)(C)C)C4)nn2)C3)cn1 [Compound 399, (S)-2-(6-(3-(tert-butyl)piperazin-1-yl)pyridazin-3-yl)-6-(1-methyl-1H-pyrazol-4-yl)isoindolin-1-one] | 65 | 43 | – |
| Cc1nn(C)nc1-c1cnc2c(c1)C(=O)N(c1ccc(N3CCN4CCC[C@H]4C3)nn1)C2 [Compound 615, (S)-3-(2,5-dimethyl-2H-1,2,3-triazol-4-yl)-6-(6-(hexahydropyrrolo[1,2-a]pyrazin-2(1H)-yl)pyridazin-3-yl)-6,7-dihydro-5H-pyrrolo[3,4-b]pyridin-5-one] | 81 | 53 | – |
| Cn1cc(-c2cc3c(cn2)CN(c2ccc(OC4CC(C)(C)NC(C)(C)C4)nn2)C3=O)c(F)n1 [Compound 91, 6-(3-fluoro-1-methyl-1H-pyrazol-4-yl)-2-(6-((2,2,6,6-tetramethylpiperidin-4-yl)oxy)pyridazin-3-yl)-2,3-dihydro-1H-pyrrolo[3,4-c]pyridin-1-one] | 85 | 74 | – |
| Cc1nn(C)nc1-c1cc(F)c2c(c1)C(=O)N(c1ccc(N3CCN4CCC[C@H]4C3)nn1)C2 [Compound 665, (S)-6-(2,5-dimethyl-2H-1,2,3-triazol-4-yl)-4-fluoro-2-(6-(hexahydropyrrolo[1,2-a]pyrazin-2(1H)-yl)pyridazin-3-yl)isoindolin-1-one] | 92 | 32 | – |
| [2H]C([2H])([2H])n1cc(-c2cnc3c(c2)C(=O)N(c2ccc(N(C)C4CC(C)(C)NC(C)(C)C4)nn2)C3)cn1 [Compound 161, 6-(6-(methyl(2,2,6,6-tetramethylpiperidin-4-yl)amino)pyridazin-3-yl)-3-(1-(methyl-d3)-1H-pyrazol-4-yl)-6,7-dihydro-5H-pyrrolo[3,4-b]pyridin-5-one] | 96 | 70 | – |
| Cc1nn(C)cc1-c1ccc2c(c1)C(=O)N(c1ccc(O[C@H]3C[C@]4(C)CC[C@](C)(C3)N4)nn1)C2 [Compound 416, 6-(1,3-dimethyl-1H-pyrazol-4-yl)-2-(6-(((1R,3s,5S)-1,5-dimethyl-8-azabicyclo[3.2.1]octan-3-yl)oxy)pyridazin-3-yl)isoindolin-1-one] | 37 | – | – |
| Cn1cc(-c2cnc3c(c2)C(=O)N(c2ccc(O[C@H]4C[C@]5(C)CC[C@](C)(C4)N5)nn2)C3)c(Cl)n1 [Compound 261, 3-(3-chloro-1-methyl-1H-pyrazol-4-yl)-6-(6-(((1R,3s,5S)-1,5-dimethyl-8-azabicyclo[3.2.1]octan-3-yl)oxy)pyridazin-3-yl)-6,7-dihydro-5H-pyrrolo[3,4-b]pyridin-5-one] | 48 | 7 | – |
| Cn1nc(Cl)c(-c2cc(F)c3c(c2)C(=O)N(c2ccc(N4CC5CCC(C4)N5)nn2)C3)n1 [Compound 653, 2-(6-(3,8-diazabicyclo[3.2.1]octan-3-yl)pyridazin-3-yl)-6-(5-chloro-2-methyl-2H-1,2,3-triazol-4-yl)-4-fluoroisoindolin-1-one] | 93 | 27 | – |
| Cc1nn(C)nc1-c1cc(C#N)c2c(c1)C(=O)N(c1ccc(N(C)[C@H]3C[C@]4(C)CC[C@](C)(C3)N4)nn1)C2 [Compound 676, 6-(2,5-dimethyl-2H-1,2,3-triazol-4-yl)-2-(6-(((1R,3s,5S)-1,5-dimethyl-8-azabicyclo[3.2.1]octan-3-yl)(methyl)amino)pyridazin-3-yl)-1-oxoisoindoline-4-carbonitrile] | 48 | 17 | – |
| CC(C)[C@H]1CN(c2ccc(N3Cc4c(F)cc(-c5cnn(C)n5)cc4C3=O)nn2)CCN1 [Compound 629, (S)-4-fluoro-2-(6-(3-isopropylpiperazin-1-yl)pyridazin-3-yl)-6-(2-methyl-2H-1,2,3-triazol-4-yl)isoindolin-1-one] | 74 | 62 | – |
| Cc1ncc(-c2cnc3c(c2)C(=O)N(c2ccc(O[C@H]4C[C@]5(C)CC[C@](C)(C4)N5)nn2)C3)s1 [Compound 598, 6-(6-(((1R,3s,5S)-1,5-dimethyl-8-azabicyclo[3.2.1]octan-3-yl)oxy)pyridazin-3-yl)-3-(2-methylthiazol-5-yl)-6,7-dihydro-5H-pyrrolo[3,4-b]pyridin-5-one] | 62 | 52 | – |
| CN(c1ccc(N2Cc3ncc(-c4cn(C)nc4F)cc3C2=O)nn1)C1CC(C)(C)NC(C)(C)C1 [Compound 187, 3-(3-fluoro-1-methyl-1H-pyrazol-4-yl)-6-(6-(methyl(2,2,6,6-tetramethylpiperidin-4-yl)amino)pyridazin-3-yl)-6,7-dihydro-5H-pyrrolo[3,4-b]pyridin-5-one] | 92 | 25 | – |
| Cc1nn(C)nc1-c1cc(F)c2c(c1)C(=O)N(c1ccc(N(C)C3CC(C)(C)NC(C)(C)C3)nn1)C2 [Compound 293, 6-(2,5-dimethyl-2H-1,2,3-triazol-4-yl)-4-fluoro-2-(6-(methyl(2,2,6,6-tetramethylpiperidin-4-yl)amino)pyridazin-3-yl)isoindolin-1-one] | 54 | 12 | ~1060 |
